Assay results published in US4661510A, “α-allenic-α-amino acids as enzyme inhibitors” (priority 1985, dated 1987).

Tests used:
dermatophytes = assay: In vitro anti-microbial activity (dermatophytes); type: cell-based
[1] = target: T1, bacterial tyrosine decarboxylase from Streptococcus faecallis (Enterococcus faecalis, UniProt Q838D6); assay: Time dependent inactivation of tyrosine decarboxylase; type: biochemical; details: Streptococcus faecallis enzyme
T1 construct: purchased from Sigma Chemical Co. as crude extracts; purchased Sigma Chemical Co; host or cells: Streptococcus faecalis, crude extract
T1 sequence (Q838D6 1-620): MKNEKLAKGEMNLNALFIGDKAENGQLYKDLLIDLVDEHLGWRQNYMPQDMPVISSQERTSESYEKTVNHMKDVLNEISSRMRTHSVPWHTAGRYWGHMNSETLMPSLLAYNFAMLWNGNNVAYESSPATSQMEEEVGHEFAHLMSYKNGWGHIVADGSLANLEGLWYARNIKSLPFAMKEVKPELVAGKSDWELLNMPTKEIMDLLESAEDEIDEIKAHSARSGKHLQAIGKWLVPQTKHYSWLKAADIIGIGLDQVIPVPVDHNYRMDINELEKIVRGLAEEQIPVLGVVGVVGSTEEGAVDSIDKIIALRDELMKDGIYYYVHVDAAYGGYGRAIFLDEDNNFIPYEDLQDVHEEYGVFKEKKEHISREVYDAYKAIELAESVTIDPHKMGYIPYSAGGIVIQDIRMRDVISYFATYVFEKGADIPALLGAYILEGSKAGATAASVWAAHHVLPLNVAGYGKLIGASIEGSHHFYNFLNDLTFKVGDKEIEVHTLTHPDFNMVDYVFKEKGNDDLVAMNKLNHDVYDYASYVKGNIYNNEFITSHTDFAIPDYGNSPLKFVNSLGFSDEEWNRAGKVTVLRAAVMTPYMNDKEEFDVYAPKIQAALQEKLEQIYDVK
Excerpt: (§1) Mammalian DOPA decarboxylase was isolated and purified from porcine kidney by the procedure of Borri-Voltatorni et al [Eur. J. Biochem., 93, 181 (1979)] with modifications as introduced by Rudd and Thanassi [Biochemistry, 20, 7469 (1981)]. Bacterial L-phenylalanine and L-tyrosine decarboxylases ex Streptococcus faecallis were purchased from Sigma Chemical Co. as crude extracts and studied without further purification.
(§2) The time dependent inactivation of bacterial aromatic amino acid decarboxylases with 200-1000 micromolar inhibitor, e.g. 2-amino-2-(4-hydroxybenzyl)-penta-3,4-dienoic acid or 2-amino-2-benzylpenta-3,4-dienoic acid, was monitored at pH 5.5 and 37° C. Residual activity of tyrosine decarboxylase ex Streptococcus faecallis was determined by measurement of p-tyramine production at pH 5.5 and 37° C. p-Tyramine was separated by HPLC and quantified by electrochemical oxidation at +0.7 volts.

Male Sim:(S.D.)fBR rats = assay: In vivo potentiation of L-DOPA induced behaviors; parameters: species or system rat; details: for Mean Behavior Score at 60 min.: score scale 0-6, before 200 mg/kg L-DOPA i.p.
Protocol: Male Sim:(S.D.)fBR rats weighing 180-335 g were used for these experiments. Groups of 5 rats were individually housed and received water, or various doses of either 2-amino-2-(3-hydroxybenzyl)penta-3,4-dienoic acid or 2-amino-2-(3,4-dihydroxybenzyl)penta-3,4-dienoic acid 30 l minutes before 200 mg/kg of L-DOPA, i.p. Beginning 15 minutes later, behavioral observations were made at 15 minutes intervals for 2 hours. Behavoir was scored as follows:
3=Alert with intermittent sniffing

male mice = assay: Toxicity (acute, oral, mouse); type: in vivo; details: male mice; 62.5, 125, 250 and 500 mg/kg in CMC vehicle; observed for 21 days
Protocol: (§3) 2-amino-2-(3-hydroxybenzyl)penta-3,4-dienoic acid prepared in CMC vehicle was administered once daily to groups of 6 male mice at doses 0, 62.5, 125, 250, and 500 mg/kg. […] Therefore, the LD50 (acute, oral, mouse) for 2-amino-2-(3-hydroxybenzyl)penta-3,4-dienoic acid is greater than 500 mg/kg.

[2] = Toxicity (acute, oral, mouse); type: in vivo; details: in vivo; acute, oral, mouse
Protocol: as §3

[3] = target: T2, phenylalanine decarboxylase from Streptococcus faecallis (Enterococcus faecalis, UniProt Q838D6); assay: Time dependent inactivation of phenylalanine decarboxylase; type: biochemical; details: Streptococcus faecallis enzyme
T2 construct: L-phenylalanine substrate, phenylethylamine by GC
T2 sequence (Q838D6 1-620): T1 sequence (Q838D6 1-620)
Excerpt: as §1, §2
Residual activity of L-phenylalanine decarboxylase ex Streptococcus faecallis with L-phenylalanine (2 mM) as substrate was meaasured by gas chromatographic analysis of phenylethylamine production. Direct injection of enzymatic reaction mixture (1-5 microliters) onto a standard glass column packed with 10% Apiezon L on Chromosorb 80/100 deactivated with 2% KOH allowed separation of aromatic amine from the reaction mixture. FID detection quantified the rate of product formation.

[4] = target: T3, mammalian DOPA decarboxylase from porcine kidney (Sus scrofa, UniProt P80041); assay: Time dependent inactivation of DOPA decarboxylase; type: biochemical; details: porcine kidney enzyme
T3 construct: isolated and purified from porcine kidney; from tissue; host or cells: porcine kidney
T3 sequence (P80041 1-486): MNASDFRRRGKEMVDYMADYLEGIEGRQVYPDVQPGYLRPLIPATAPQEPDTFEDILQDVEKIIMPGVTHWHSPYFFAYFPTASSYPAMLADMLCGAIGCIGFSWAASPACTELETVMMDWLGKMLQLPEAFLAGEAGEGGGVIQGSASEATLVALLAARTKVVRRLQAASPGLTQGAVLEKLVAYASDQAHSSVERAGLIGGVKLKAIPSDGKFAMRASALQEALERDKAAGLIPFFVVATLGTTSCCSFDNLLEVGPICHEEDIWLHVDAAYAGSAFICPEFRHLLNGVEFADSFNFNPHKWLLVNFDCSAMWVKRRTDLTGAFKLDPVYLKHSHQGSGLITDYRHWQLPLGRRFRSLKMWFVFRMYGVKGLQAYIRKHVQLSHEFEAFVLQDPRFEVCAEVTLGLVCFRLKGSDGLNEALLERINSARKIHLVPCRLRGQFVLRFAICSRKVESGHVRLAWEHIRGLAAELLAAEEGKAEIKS
Excerpt: as §1
Time dependent inactivation of mammalian DOPA decarboxylase was monitored by incubation of enzyme with 4 to 100 molar equivalent excess of 2-amino-2-(3,4-dihydroxybenzyl)penta-3,4-dienoic acid at pH 6.8 and 37° C. At appropriate time intervals, aliquots of the mixture were withdrawn, diluted 30-fold into excess L-DOPA (2 mM) and residual DOPA decarboxylase activity determined.
DOPA decarboxylase activity was routinely measured by liquid chromatography and electrochemical detection of catecholamine products. DOPA decarboxylase (1-5 micrograms, 1-20 units) was incubated with L-DOPA (2000 micromolar, 150 microliters) and PLP (10 micromolar) in 0.1M phosphate at pH 6.8 and 37° C. After 1-10 minutes, the reaction was quenched with citric acid (2M, 25 microliters), diluted two-fold with distilled water and 10 microliter aliquots were analyzed by HPLC on a reverse phase Brownlee RP-18 column. Isocratic elution with pH 4.35 buffer [0.1M NaOAc ([…]), 0.1M citric acid (32% v/v) and methanol (15% v/v)] at a flow rate of 2.5 ml/min. afforded baseline resolution of dopamine (RT=2.8 min.) from L-DOPA (RT=1.9 min.).
Quantification of dopamine was accomplished by preoxidation of the catechol to the ortho quinone at +0.25 volts in the first analytical electrochemical cell, followed by the selective reduction of ortho quinone in the second analytical cell set at -0.25 volts. This configuration for the ESA electrochemical detector allowed highly sensitive and selective detection of catecholamines (less than 10 picomoles/injection).

[5] = target: T4, mammalian ornithine decarboxylase from rat liver (Rattus norvegicus, UniProt P09057); assay: Inactivation of mammalian ornithine decarboxylase; type: biochemical; details: rat liver enzyme
T4 construct: mammalian ornithine decarboxylase from rat liver; from tissue; host or cells: rat liver
T4 sequence (P09057 1-461): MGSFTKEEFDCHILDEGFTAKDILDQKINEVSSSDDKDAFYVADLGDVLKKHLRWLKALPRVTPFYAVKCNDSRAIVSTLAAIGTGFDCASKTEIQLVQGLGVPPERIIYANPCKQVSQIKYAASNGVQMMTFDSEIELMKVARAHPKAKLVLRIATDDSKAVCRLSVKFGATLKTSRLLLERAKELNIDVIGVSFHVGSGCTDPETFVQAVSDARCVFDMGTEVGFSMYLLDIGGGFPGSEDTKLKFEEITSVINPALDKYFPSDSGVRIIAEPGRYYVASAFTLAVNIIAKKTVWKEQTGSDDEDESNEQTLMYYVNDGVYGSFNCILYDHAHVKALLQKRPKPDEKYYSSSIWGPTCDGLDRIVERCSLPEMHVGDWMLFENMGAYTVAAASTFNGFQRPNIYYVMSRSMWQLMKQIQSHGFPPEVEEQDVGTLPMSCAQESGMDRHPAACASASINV

[6] = target: T5, bacterial ornithine decarboxylase from E. Coli (Escherichia coli, UniProt P21169); assay: Inactivation of bacterial ornithine decarboxylase; type: biochemical; details: E. Coli enzyme
T5 construct: bacterial ornithine decarboxylase from E. Coli; host or cells: E. coli
T5 sequence (P21169 whole entry): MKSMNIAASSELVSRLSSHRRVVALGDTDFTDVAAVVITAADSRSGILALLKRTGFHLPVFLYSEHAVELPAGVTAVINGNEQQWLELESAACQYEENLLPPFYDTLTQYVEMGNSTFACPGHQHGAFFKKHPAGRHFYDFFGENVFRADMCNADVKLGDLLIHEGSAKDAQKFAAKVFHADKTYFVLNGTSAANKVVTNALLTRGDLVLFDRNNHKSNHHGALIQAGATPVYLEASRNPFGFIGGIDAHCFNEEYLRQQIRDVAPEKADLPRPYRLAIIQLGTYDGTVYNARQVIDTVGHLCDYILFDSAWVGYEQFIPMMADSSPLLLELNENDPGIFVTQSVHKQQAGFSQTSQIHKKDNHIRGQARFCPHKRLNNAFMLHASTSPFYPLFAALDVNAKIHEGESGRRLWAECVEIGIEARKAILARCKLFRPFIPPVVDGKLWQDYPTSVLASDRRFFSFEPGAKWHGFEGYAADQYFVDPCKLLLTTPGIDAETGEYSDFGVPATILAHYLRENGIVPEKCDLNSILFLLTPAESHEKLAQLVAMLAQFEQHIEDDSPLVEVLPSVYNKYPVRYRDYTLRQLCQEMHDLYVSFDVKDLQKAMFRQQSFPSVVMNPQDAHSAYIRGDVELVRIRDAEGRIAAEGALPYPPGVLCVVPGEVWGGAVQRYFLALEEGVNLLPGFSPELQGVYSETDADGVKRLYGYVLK

C=C=C(C)C(N)C(=O)O (stereo not drawn) [2-amino-3-methylpenta-3,4-dienoic acid]
activity in vitro against a spectrum of dermatophytes (dermatophytes): active

C=C=CC(N)(Cc1cccc(O)c1)C(=O)O (stereo not drawn) [2-amino-2-(3-hydroxybenzyl)penta-3,4-dienoic acid]
irreversible inactivation of tyrosine decarboxylase [1]: irreversible inactivators
potentiation of the behaviors induced by L-DOPA (Male Sim:(S.D.)fBR rats; 3-30 mg/kg i.p. or 30-150 mg/kg s.c., 30 minutes before 200 mg/kg L-DOPA i.p.): potentiated the behaviors induced by L-DOPA
Mean Behavior Score at 60 min. (Male Sim:(S.D.)fBR rats; 3-30 mg/kg i.p.): 3.4
potentiation of DOPA behaviors (Male Sim:(S.D.)fBR rats; 3 to 30 mg/kg i.p. or 30 to 150 mg/kg s.c.): potentiate DOPA behaviors
Mean Behavior Score at 60 min. (Male Sim:(S.D.)fBR rats; 30-150 mg/kg s.c.): 3.4
deaths (male mice): no deaths
LD50 at 504 h [2]: > 500 mg/kg
irreversible inactivation of phenylalanine decarboxylase [3]: irreversible inactivators
irreversible inactivation of DOPA decarboxylase [4]: irreversible inactivators

C=C=CC(N)(CCCN)C(=O)O (stereo not drawn) [2-amino-2-(3-amino-n-propyl)penta-3,4-dienoic acid]
irreversible inactivation of ornithine decarboxylase [5]: irreversible inactivators
irreversible inactivation of ornithine decarboxylase [6]: irreversible inactivators
